Experimental data: patent publication US20190001002A1, “DRUG DESIGN FOR APPLICATION-DEPENDENT PAYLOAD, CONTROLLED PHARMACOKINETIC DISTRIBUTION, AND RENAL CLEARANCE” (General Electric Company, priority 2017, published 2019)
Read-outs that look alike come from different tables or passages of the source.

Assays:
[1] = Contrast-enhanced liver CT scans of swine in fat-equivalent encasements, multi-reader image quality assessment; type: in vivo; details: swine CT in adipose-equivalent encasements, relative to TaCZ, FIG. 6
Method: The scans were performed one day to one week apart, and the scan sequence was randomized. During scanning, the pigs were encased in plastic fat-equivalent encasements to emulate a range of large patient sizes. Scans were performed in the pigs' livers at several time points from 30 to 300 seconds after injection. Image quality at each time point was graded by radiologists using predefined criteria such as image contrast in specified vessels.
In FIG. 6, images 220 on the left were acquired using a conventional iodinated contrast agent, iopromide, while images 220 on the right were acquired using the TaCZ nanoparticle contrast agent described above. Vertically, the images are arranged based on patient size.
In FIG. 7, the results of the multi-reader assessment are provided in graphical form.

[2] = Pharmacokinetic modeling of active element (iodine or tantalum) concentration in pig blood/plasma after contrast agent injection; type: in vivo; details: plasma, other: injection
Excerpt: Given this illustration of endothelial permeability, it may be appreciated that, immediately after administration, small-molecule contrast agents begin to distribute from the blood pool into interstitial fluid. Due to this “distribution phase”, the concentration of the contrast agent in the blood pool becomes immediately diluted by a factor of two or more in the first minutes after injection. This is illustrated in FIG. 3 where the concentration of the contrast agent iopromide in pig plasma is illustrated as a function of time, with both a distribution phase and elimination phase being evident.
This distribution occurs at a relatively fast rate, with a half-life (T½a) on the order of minutes and is denoted as the distribution phase in FIG. 3. […] Therefore, the concentration of the molecule in the blood would decrease approximately four fold in much less than 10 minutes due to this initial distribution process alone. However, the drug is simultaneously cleared from the blood by the kidneys at a slower rate, with a T½ on the order of 1-2 hours (denoted as the elimination phase in FIG. 3), resulting in an additional lowering of the concentration in the blood.
In a separate analysis, PK modeling was obtained by analyzing the concentration of the active element (iodine or tantalum) in blood samples taken from 2 to 240 minutes after contrast agent injection. […]

half-life ([2]; FIG. 3, read-out: distribution-phase half-life (T½a) in plasma): < 0.0833 h
half-life ([2]; cleared from the blood by the kidneys, FIG. 3, read-out: clearance half-life T½ (elimination phase)): 1 to 2 h
Compound: COCC(=O)Nc1c(I)c(C(=O)NCC(O)CO)c(I)c(C(=O)N(C)CC(O)CO)c1I (stereo not drawn) [iopromide]
image contrast enhancement as patient size (and X-ray energy) increases [1]: decreases
